Experiments:
Dahlen soil = test: Soil thin-layer chromatography (TLC) leaching study, Dahlen soil; assay type: physicochemical; conditions: Dahlen soil TLC
Protocol: (§1) TLC plates were prepared based on methods described in the literature (Helling, C. S., Turner, B. C, Science 1968, 162, 562-563; Mohammad, A., Jabeen, N., JPC—Journal of Planar Chromatography—Modern TLC 2003, 16, 137-143). Masking tape (3 layers, ˜[…] total thickness) was used to outline three columns (4 cm W×12 cm H) on a glass TLC plate (20×20 cm). A slurry of freshly ground soil in distilled H2O (˜2:3 m/v) was then poured onto the prepared plate and spread evenly using a glass rod. Once even, the plate was dried overnight in an oven at 35° C. Careful removal of the masking tape afforded the TLC plate ready for sample application.
(§2) Samples of DMP (the active core of DMPP) or Compound 16 (˜1 mg) dissolved in acetone (100 μL) were pipetted in a straight line across the soil, 2 cm above the base of the plate. Application band thickness was kept under 0.5 cm. After 30 mins of drying time, the TLC plate was developed inside a glass developing chamber with distilled H2O (depth of 0.5 cm) until the solvent front reached the top of the soil (˜1 hr). […] The plate was then allowed to air dry overnight.
(§3) Once dry, the plate was divided into six horizontal bands corresponding to Rf values of: (1) <0.05 (baseline), (2) 0.05 to 0.25, (3) 0.25 to 0.45, (4) 0.45 to 0.65, (5) 0.65 to 0.85, and (6) 0.85 to 1. In sequence, soil in each band was carefully scraped off the glass backing and collected in vials. Special care was taken to avoid cross-contamination between soil of different bands, and the separate channels.
(§4) Individual soil bands collected from the TLC plate were extracted as follows: • 1. Addition of an aqueous solution of CaCl2/MgSO4 (0.01M and 0.45M respectively, 2 mL). • 2. Sonication for 5 minutes then manual shaking for 30 seconds. • 3. Addition of methyl-tert-butyl ether (MTBE, 2 mL) then manual shaking for 30 seconds. • 4. Sonication for 10 minutes then manual shaking for 30 seconds. • 5. Rested until soil began to settle, then frozen overnight at −20° C. • 6. After partial defrosting, the ethereal extract was filtered through nylon syringe filters (FilterBio®, 13 mm diameter, 0.45 µm pore size).
(§5) The filtered ethereal extracts (450 μL) were spiked with 50 μL of a standard solution of either cyclododecanone in MTBE (1.97 mg/mL, for DMP-treated samples) or cyclooctanone in MTBE (6.37 mg/mL, for 16-treated samples). Samples were then directly analysed by GC-MS (method: 70° C. for 5 mins, then ramp 10° C./min to 250° C., hold at 250° C. for 17 mins [total run time=40 minutes]) to analyse the presence or absence of the inhibitor in each soil band.
(§6) GC-MS peak areas calculated for the standards cyclooctanone (Rt=9.1 mins) and cyclododecanone (Rt=15.8 mins) were compared to those calculated for Compound 16 (Rt=13.9 mins) and DMP (Rt=7.6 mins) respectively, for each soil sample extract where inhibitor was detected as follows:
(§7) As each treatment was run in triplicate, mean values are reported for detected inhibitor percentages for each Rf band, with errors presented as the standard deviation.
as §2, with “the DCD” for “DMP (the active core of DMPP) or Compound 16”, “methanol (300” for “acetone (100”, “in” for “with”
(§8) Individual soil bands collected from the TLC plate were extracted as follows: • 1. Addition of methanol (2 mL). • 2. Manual shaking for 30 seconds following sonication for 15 minutes. • 3. Once soil began to settle, the methanolic extract was filtered through nylon syringe filters (FilterBio®, 13 mm diameter, 0.45 µm pore size). • 4. 300 μL of the methanolic extracts were evaporated under nitrogen flow, and then the residues was taken up in ultrapure acetonitrile (1 mL). • 5. […]

South Johnstone soil = test: Soil thin-layer chromatography (TLC) leaching study, South Johnstone soil; assay type: physicochemical
Protocol: as §1, §2, §3, §4, §5, §6, §7
as §2, with “the DCD” for “DMP (the active core of DMPP) or Compound 16”, “methanol (300” for “acetone (100”, “in” for “with”
as §8

Rf range in which the majority of the inhibitor was detected (Dahlen soil)	Detected Inhibitor (%) (Dahlen soil; Rf 0.45-0.65)	Detected Inhibitor (%) (Dahlen soil; Rf 0.65-0.85)	Detected Inhibitor (%) (Dahlen soil; Rf 0.85-1)	Detected Inhibitor (%) (South Johnstone soil; South Johnstone soil TLC, Rf 0.25-0.45)	Detected Inhibitor (%) (South Johnstone soil; South Johnstone soil TLC, Rf 0.45-0.65)	Detected Inhibitor (%) (South Johnstone soil; South Johnstone soil TLC, Rf 0.65-0.85)	Structure (SMILES)	Rf range of largest DCD accumulation (Dahlen soil; HPLC detection, preliminary results)	Rf range of largest DCD accumulation (South Johnstone soil; South Johnstone soil TLC, HPLC detection, preliminary results)	leaching in soil TLC (South Johnstone soil; acidic South Johnstone soil)
							N#CN=C(N)N [DCD, dicyandiamide, reference compound]	0.65-1	0.65-1	
0.65-0.85	0.1 ± 0.2	72 ± 16	28 ± 16	2 ± 2	56 ± 12	42 ± 13	Cc1c[nH]nc1C [DMP, 3,4-dimethylpyrazole, reference compound]			leach in a narrower band and to a lesser extent than Compound 16
